Patent US11813239B2, “Compositions and methods for improving cardiac structure and/or function” (Wisconsin Alumni Research Foundation, priority 2020, dated 2023)

System: adult mouse heart following myocardial infarction
Assay: Echocardiography after adult MI, malonate treatment starting 1-week post-MI
Settings: adult mice, mean ± SE
[1] = MI, 3 WPMI, dimethyl malonate 100 mg/kg daily for 4 weeks starting 1 WPMI
[2] = MI, 4 WPMI, dimethyl malonate 100 mg/kg daily for 4 weeks starting 1 WPMI
[3] = MI, 6 WPMI, dimethyl malonate 100 mg/kg daily for 4 weeks starting 1 WPMI
[4] = malonate group, MI, 1 WPMI (before start of dosing)
[5] = malonate group, Pre (before MI and dosing)

Description: Adult male mice (8-week-old) were subjected to MI by ligation of the proximal aspect of the LAD coronary artery. In brief, mice were anaesthetized using 3% isoflurane, then mice were intubated with PE50 tubing and placed on a mouse ventilator at 120-130 breaths per minute with a stroke volume of 150 microliters and maintained on 2% isoflurane. A left lateral incision through the fourth intercostal space was made to expose the heart. After visualizing the left coronary artery, 7-0 suture was placed through the myocardium in the anterolateral wall and secured as previously describer^17,18. Coronary artery entrapment was confirmed by observing blanching of the distal circulation (ventricular apex). ECG was used to confirm MI by noting ST segment changes. The lungs were over inflated, and the ribs and muscle layers were closed by absorbable sutures. The skin is closed by additional suturing using 6-0 nylon. The mouse was recovered from the anesthesia and extubated.
Saline was used as a vehicle control for all experiments. […] Adult mice were injected intraperitoneally daily with either saline or 100 mg/kg dimethyl malonate post-MI for 2 or 4 weeks.
Transthoracic echocardiography was performed by using a Visual Sonics 770 ultrasonograph with a 25-MHz transducer (Visual Sonics, Toronto) as described previously^19. Mice were lightly anesthetized with 1% isoflurane and maintained on a heated platform. Two-dimensionally guided M-mode images from a parasternal long axis (PLAX) of the left ventricle (LV) were acquired at the tip of the papillary muscles. Wall thickness and chamber diameters were measured in both diastole and systole. Fractional shortening was calculated as (LVDd−LVDs)/LVDd×100, where LVDd is LV diameter in diastole and LVDs is LV diameter in systole. Ejection fraction was calculated as [(7.0/(2.4+LVDd)(LVDd)^3−(7.0/(2.4+LVDs)(LVDs)^3/(7.0/(2.4+LVDd)(LVDd)^3×100 and LV mass was calculated by using the formula [1.05×((Posterior Walldiastole+Anterior Walldiastole+LVDd)^3−(LVDd)^3)]. All parameters were measured over at least three consecutive cycles.
To determine whether SDH inhibitors can promote a regenerative response following the establishment of infarction, we performed MI in 8-week-old mice and started malonate treatment at 1-week post-MI (FIG. 20A). […] Mice were then randomized and treated with saline or malonate for a period of 4 weeks, and hearts were harvested at 6 weeks post-MI (FIG. 20A).

SMILES: COC(=O)CC(=O)OC [Malonate, dimethyl malonate]
- % FS (Fractional Shortening) [1]: 18.642 ± 2.058%
- LV Mass (Left Ventricular Mass, Anatomical Weight) [1]: 90.090 ± 11.827 mg
- LV Vol; d (Left Ventricular Volume; diastole) [1]: 78.984 ± 13.627 µL
- LV Vol; s (Left Ventricular Volume; systole) [1]: 50.781 ± 11.724 µL
- LVAWD (Left Ventricle Anterior Wall Thickness Diastole) [1]: 0.623 ± 0.024 mm
- LVAWS (Left Ventricle Anterior Wall Thickness Systole) [1]: 0.791 ± 0.028 mm
- LVIDD (Left Ventricle Internal Diameter Diastole) [1]: 4.139 ± 0.296 mm
- LVIDS (Left Ventricle Internal Diameter Systole) [1]: 3.393 ± 0.326 mm
- LVPWD (Left Ventricle Posterior Wall Thickness Diastole) [1]: 0.613 ± 0.017 mm
- LVPWS (Left Ventricle Posterior Wall Thickness Systole) [1]: 0.764 ± 0.018 mm
- % EF (Ejection Fraction) [2]: 45.375 ± 5.597%
- % FS (Fractional Shortening) [2]: 24.529 ± 3.624%
- LV Mass (Left Ventricular Mass, Anatomical Weight) [2]: 90.726 ± 13.717 mg
- LV Vol; d (Left Ventricular Volume; diastole) [2]: 70.697 ± 15.089 µL
- LV Vol; s (Left Ventricular Volume; systole) [2]: 47.342 ± 10.954 µL
- LVAWD (Left Ventricle Anterior Wall Thickness Diastole) [2]: 0.687 ± 0.039 mm
- LVAWS (Left Ventricle Anterior Wall Thickness Systole) [2]: 0.809 ± 0.051 mm
- LVIDD (Left Ventricle Internal Diameter Diastole) [2]: 4.136 ± 0.349 mm
- LVIDS (Left Ventricle Internal Diameter Systole) [2]: 2.958 ± 0.419 mm
- LVPWD (Left Ventricle Posterior Wall Thickness Diastole) [2]: 0.962 ± 0.287 mm
- LVPWS (Left Ventricle Posterior Wall Thickness Systole) [2]: 1.015 ± 0.214 mm
- % EF (Ejection Fraction) [3]: 47.208 ± 4.087%
- % FS (Fractional Shortening) [3]: 23.535 ± 2.509%
- LV Mass (Left Ventricular Mass, Anatomical Weight) [3]: 107.845 ± 11.076 mg
- LV Vol; d (Left Ventricular Volume; diastole) [3]: 75.865 ± 9.652 µL
- LV Vol; s (Left Ventricular Volume; systole) [3]: 40.253 ± 6.696 µL
- LVAWD (Left Ventricle Anterior Wall Thickness Diastole) [3]: 0.718 ± 0.011 mm
- LVAWS (Left Ventricle Anterior Wall Thickness Systole) [3]: 0.831 ± 0.019 mm
- LVIDD (Left Ventricle Internal Diameter Diastole) [3]: 4.113 ± 0.228 mm
- LVIDS (Left Ventricle Internal Diameter Systole) [3]: 3.146 ± 0.214 mm
- LVPWD (Left Ventricle Posterior Wall Thickness Diastole) [3]: 0.738 ± 0.018 mm
- LVPWS (Left Ventricle Posterior Wall Thickness Systole) [3]: 0.846 ± 0.017 mm
- % EF (Ejection Fraction) [4]: 35.760 ± 3.523%
- % FS (Fractional Shortening) [4]: 17.077 ± 1.873%
- LV Mass (Left Ventricular Mass, Anatomical Weight) [4]: 105.118 ± 13.726 mg
- LV Vol; d (Left Ventricular Volume; diastole) [4]: 87.566 ± 16.492 µL
- LV Vol; s (Left Ventricular Volume; systole) [4]: 57.371 ± 11.845 µL
- LVAWD (Left Ventricle Anterior Wall Thickness Diastole) [4]: 0.651 ± 0.018 mm
- LVAWS (Left Ventricle Anterior Wall Thickness Systole) [4]: 0.788 ± 0.016 mm
- LVIDD (Left Ventricle Internal Diameter Diastole) [4]: 4.329 ± 0.343 mm
- LVIDS (Left Ventricle Internal Diameter Systole) [4]: 3.603 ± 0.326 mm
- LVPWD (Left Ventricle Posterior Wall Thickness Diastole) [4]: 0.665 ± 0.033 mm
- LVPWS (Left Ventricle Posterior Wall Thickness Systole) [4]: 0.838 ± 0.025 mm
- % EF (Ejection Fraction) [5]: 69.832 ± 3.238%
- % FS (Fractional Shortening) [5]: 38.447 ± 2.452%
- LV Mass (Left Ventricular Mass, Anatomical Weight) [5]: 59.124 ± 6.101 mg
- LV Vol; d (Left Ventricular Volume; diastole) [5]: 32.452 ± 4.967 µL
- LV Vol; s (Left Ventricular Volume; systole) [5]: 10.208 ± 2.260 µL
- LVAWD (Left Ventricle Anterior Wall Thickness Diastole) [5]: 0.704 ± 0.023 mm
- LVAWS (Left Ventricle Anterior Wall Thickness Systole) [5]: 0.838 ± 0.024 mm
- LVIDD (Left Ventricle Internal Diameter Diastole) [5]: 2.872 ± 0.174 mm
- LVIDS (Left Ventricle Internal Diameter Systole) [5]: 1.779 ± 0.158 mm
- LVPWD (Left Ventricle Posterior Wall Thickness Diastole) [5]: 0.717 ± 0.020 mm
- LVPWS (Left Ventricle Posterior Wall Thickness Systole) [5]: 0.829 ± 0.017 mm
